Where two headings read alike, the source gives them in different places.
Legend:
Format in all cases: cell-based
[1] = test system: Acinetobacter baumannii clinical strains; set-up: Minimum inhibitory concentration: unit: μg/ml; conditions: microdilution, Muller Hinton broth-cation adjusted, 0.02% BSA, 0.2% acetic acid
Procedure, shortened: (§1)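 Broth microdilution in Mueller Hinton broth, inoculum adjusted to 5.0×10^5 cfu/ml, peptides tested at 0.125 to 128 μg/ml, 37° C for 20 to 24 hours. Yeast assays were run in potato dextrose broth. MIC was taken as the lowest concentration with no visible growth.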

[2] = test system: Enterobacter cloacae clinical strains; set-up: Minimum inhibitory concentration: unit: μg/ml; conditions: microdilution, Muller Hinton broth-cation adjusted, 0.02% BSA, 0.2% acetic acid
Procedure, shortened: as §1

[3] = test system: Proteus mirabilis clinical strains; set-up: Minimum inhibitory concentration: unit: μg/ml; conditions: microdilution, Muller Hinton broth-cation adjusted, 0.02% BSA, 0.2% acetic acid
Procedure, shortened: as §1

[4] = test system: Serratia marcescens clinical strains; set-up: Minimum inhibitory concentration: unit: μg/ml; conditions: microdilution, Muller Hinton broth-cation adjusted, 0.02% BSA, 0.2% acetic acid
Procedure, shortened: as §1

[5] = test system: Staphylococcus aureus clinical strains; set-up: Minimum inhibitory concentration: unit: μg/ml; conditions: microdilution, Muller Hinton broth-cation adjusted, 0.02% BSA, 0.2% acetic acid
Procedure, shortened: as §1

[6] = test system: Streptococcus pneumoniae clinical strains; set-up: Minimum inhibitory concentration: unit: μg/ml; conditions: microdilution, Muller Hinton broth-cation adjusted, 0.02% BSA, 0.2% acetic acid
Procedure, shortened: as §1

[7] = test system: Acinetobacter johnsonii clinical strains; conditions: Acinetobacter johnsonii clinical strain 1; microdilution, Muller Hinton broth-cation adjusted, 0.02% BSA, 0.2% acetic acid
Procedure, shortened: as §1

[8] = test system: Escherichia coli clinical strains; conditions: microdilution, Muller Hinton broth-cation adjusted, 0.02% BSA, 0.2% acetic acid
Procedure, shortened: as §1

[9] = test system: Klebsiella pneumoniae clinical strains; conditions: microdilution, Muller Hinton broth-cation adjusted, 0.02% BSA, 0.2% acetic acid
Procedure, shortened: as §1

[10] = test system: Pseudomonas aeruginosa clinical strains; conditions: microdilution, Muller Hinton broth-cation adjusted, 0.02% BSA, 0.2% acetic acid
Procedure, shortened: as §1

Measured: Minimum inhibitory concentration

Gentamicin [reference compound]
1: [4]; Serratia marcescens clinical strain 1 | [4]; Serratia marcescens clinical strain 3 | [4]; Serratia marcescens clinical strain 4 | [4]; Serratia marcescens clinical strain 5 | [6]; Streptococcus pneumoniae clinical strain 5 | [8]; Escherichia coli clinical strain 3 | [8]; Escherichia coli clinical strain 4 | [8]; Escherichia coli clinical strain 5 | [10]; Pseudomonas aeruginosa clinical strain 1
0.25: [1]; Acinetobacter baumannii clinical strain 2 | [1]; Acinetobacter baumannii clinical strain 5 | [2]; Enterobacter cloacae clinical strain 1 | [2]; Enterobacter cloacae clinical strain 2 | [2]; Enterobacter cloacae clinical strain 3 | [2]; Enterobacter cloacae clinical strain 4 | [2]; Enterobacter cloacae clinical strain 5 | [7] | [9]; Klebsiella pneumoniae clinical strain 2 | [10]; Pseudomonas aeruginosa clinical strain 5
4: [9]; Klebsiella pneumoniae clinical strain 5
0.5: [1]; Acinetobacter baumannii clinical strain 1 | [1]; Acinetobacter baumannii clinical strain 3 | [1]; Acinetobacter baumannii clinical strain 4 | [5]; Staphylococcus aureus clinical strain 1 | [5]; Staphylococcus aureus clinical strain 2 | [5]; Staphylococcus aureus clinical strain 3 | [5]; Staphylococcus aureus clinical strain 4 | [5]; Staphylococcus aureus clinical strain 5 | [8]; Escherichia coli clinical strain 1 | [8]; Escherichia coli clinical strain 2 | [10]; Pseudomonas aeruginosa clinical strain 2 | [10]; Pseudomonas aeruginosa clinical strain 3 | [10]; Pseudomonas aeruginosa clinical strain 4
2: [3]; Proteus mirabilis clinical strain 1 | [3]; Proteus mirabilis clinical strain 2 | [4]; Serratia marcescens clinical strain 2 | [6]; Streptococcus pneumoniae clinical strain 1 | [6]; Streptococcus pneumoniae clinical strain 2 | [6]; Streptococcus pneumoniae clinical strain 3 | [6]; Streptococcus pneumoniae clinical strain 4 | [9]; Klebsiella pneumoniae clinical strain 1 | [9]; Klebsiella pneumoniae clinical strain 3 | [9]; Klebsiella pneumoniae clinical strain 4
8: [3]; Proteus mirabilis clinical strain 4
>128: [3]; Proteus mirabilis clinical strain 3 | [3]; Proteus mirabilis clinical strain 5

— US10457709B2, “Antimicrobial peptides, their variants and uses” (priority 2015, dated 2019)
